Measured values: ChEMBL document CHEMBL3991601, “The target landscape of clinical kinase drugs” (Science, 2017)
Calls of active or inactive are those of the source.

Experiments:
[1] = target: T1, Succinate--CoA ligase [ADP-forming] subunit beta, mitochondrial (Homo sapiens, UniProt Q9P2R7)
T1 sequence (Q9P2R7 whole entry): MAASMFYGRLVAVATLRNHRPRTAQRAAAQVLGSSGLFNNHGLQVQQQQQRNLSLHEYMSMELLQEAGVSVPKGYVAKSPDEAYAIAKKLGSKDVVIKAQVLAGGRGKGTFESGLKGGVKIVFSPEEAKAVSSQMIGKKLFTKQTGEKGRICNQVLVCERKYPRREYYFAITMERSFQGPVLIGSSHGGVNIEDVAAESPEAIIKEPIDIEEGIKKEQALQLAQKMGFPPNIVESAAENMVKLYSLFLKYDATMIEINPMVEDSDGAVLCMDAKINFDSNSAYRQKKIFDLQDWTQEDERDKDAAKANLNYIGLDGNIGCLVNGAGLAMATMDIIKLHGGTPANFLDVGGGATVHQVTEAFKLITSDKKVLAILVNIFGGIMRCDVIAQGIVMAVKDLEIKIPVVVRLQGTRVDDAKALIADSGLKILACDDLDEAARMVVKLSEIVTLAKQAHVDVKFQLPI

[2] = target: T2, Serine/threonine-protein kinase ULK1 (Homo sapiens, UniProt O75385)
T2 sequence (O75385 whole entry): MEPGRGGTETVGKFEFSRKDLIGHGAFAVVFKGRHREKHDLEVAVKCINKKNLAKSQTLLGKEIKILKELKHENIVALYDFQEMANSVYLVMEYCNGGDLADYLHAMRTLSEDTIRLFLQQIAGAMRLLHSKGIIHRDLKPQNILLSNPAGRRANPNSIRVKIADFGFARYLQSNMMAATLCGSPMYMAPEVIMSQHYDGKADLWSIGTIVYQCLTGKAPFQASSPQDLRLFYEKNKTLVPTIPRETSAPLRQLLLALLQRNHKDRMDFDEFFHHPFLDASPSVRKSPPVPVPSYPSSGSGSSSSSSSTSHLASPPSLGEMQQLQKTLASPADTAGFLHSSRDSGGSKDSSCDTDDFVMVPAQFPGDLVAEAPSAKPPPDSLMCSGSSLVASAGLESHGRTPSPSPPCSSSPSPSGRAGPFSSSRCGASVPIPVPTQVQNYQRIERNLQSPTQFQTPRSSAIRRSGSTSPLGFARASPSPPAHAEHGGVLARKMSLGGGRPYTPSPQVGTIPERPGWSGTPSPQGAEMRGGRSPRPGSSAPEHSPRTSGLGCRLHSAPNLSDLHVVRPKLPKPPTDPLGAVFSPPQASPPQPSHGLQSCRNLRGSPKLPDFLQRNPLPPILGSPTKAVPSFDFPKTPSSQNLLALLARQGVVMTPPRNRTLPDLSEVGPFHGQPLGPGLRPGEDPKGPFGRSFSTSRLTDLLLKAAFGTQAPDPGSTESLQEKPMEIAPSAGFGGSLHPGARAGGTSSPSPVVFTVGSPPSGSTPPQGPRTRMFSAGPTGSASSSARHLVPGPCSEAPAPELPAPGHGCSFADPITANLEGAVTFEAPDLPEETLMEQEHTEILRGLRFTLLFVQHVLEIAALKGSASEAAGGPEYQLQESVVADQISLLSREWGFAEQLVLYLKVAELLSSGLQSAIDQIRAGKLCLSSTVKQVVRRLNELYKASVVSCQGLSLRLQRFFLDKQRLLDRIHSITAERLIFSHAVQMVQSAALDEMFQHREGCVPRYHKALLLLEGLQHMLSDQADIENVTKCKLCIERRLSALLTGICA

[3] = target: Mitogen-activated protein kinase 11 (Homo sapiens, UniProt Q15759)
[4] = target: T3, Tyrosine--tRNA ligase, cytoplasmic (Homo sapiens, UniProt P54577)
T3 sequence (P54577 whole entry): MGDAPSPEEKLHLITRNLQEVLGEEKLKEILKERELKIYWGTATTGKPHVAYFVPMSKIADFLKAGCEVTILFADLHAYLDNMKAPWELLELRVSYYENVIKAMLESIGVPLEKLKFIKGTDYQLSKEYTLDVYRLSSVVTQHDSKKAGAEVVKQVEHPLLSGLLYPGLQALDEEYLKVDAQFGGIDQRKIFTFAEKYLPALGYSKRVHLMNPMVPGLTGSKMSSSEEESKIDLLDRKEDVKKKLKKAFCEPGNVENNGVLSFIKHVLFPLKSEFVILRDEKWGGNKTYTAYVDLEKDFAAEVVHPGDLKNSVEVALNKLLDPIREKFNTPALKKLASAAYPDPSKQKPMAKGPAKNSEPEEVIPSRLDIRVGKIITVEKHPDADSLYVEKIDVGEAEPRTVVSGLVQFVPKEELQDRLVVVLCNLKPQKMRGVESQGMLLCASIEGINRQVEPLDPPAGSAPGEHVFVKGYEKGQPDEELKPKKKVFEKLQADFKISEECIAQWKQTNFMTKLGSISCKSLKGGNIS

[5] = target: Epithelial discoidin domain-containing receptor 1 (Homo sapiens, UniProt Q08345)
[6] = target: RAC-alpha serine/threonine-protein kinase (Homo sapiens, UniProt P31749)
Heme oxygenase 2 = target: T4, Heme oxygenase 2 (Homo sapiens, UniProt P30519)
T4 sequence (P30519 whole entry): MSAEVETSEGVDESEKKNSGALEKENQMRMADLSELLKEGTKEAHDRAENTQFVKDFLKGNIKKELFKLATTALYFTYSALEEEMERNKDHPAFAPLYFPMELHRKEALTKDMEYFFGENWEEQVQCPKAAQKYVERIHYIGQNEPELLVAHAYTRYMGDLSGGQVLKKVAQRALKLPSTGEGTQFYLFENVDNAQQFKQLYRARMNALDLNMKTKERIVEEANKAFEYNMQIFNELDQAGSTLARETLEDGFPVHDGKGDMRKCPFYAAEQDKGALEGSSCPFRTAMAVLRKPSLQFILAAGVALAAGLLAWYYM
Also: in the data inactive means no Kd found up to 30 µM.

Chain of Epithelial discoidin domain-containing receptor 1 (Q08345 whole entry, the tested form may be a part): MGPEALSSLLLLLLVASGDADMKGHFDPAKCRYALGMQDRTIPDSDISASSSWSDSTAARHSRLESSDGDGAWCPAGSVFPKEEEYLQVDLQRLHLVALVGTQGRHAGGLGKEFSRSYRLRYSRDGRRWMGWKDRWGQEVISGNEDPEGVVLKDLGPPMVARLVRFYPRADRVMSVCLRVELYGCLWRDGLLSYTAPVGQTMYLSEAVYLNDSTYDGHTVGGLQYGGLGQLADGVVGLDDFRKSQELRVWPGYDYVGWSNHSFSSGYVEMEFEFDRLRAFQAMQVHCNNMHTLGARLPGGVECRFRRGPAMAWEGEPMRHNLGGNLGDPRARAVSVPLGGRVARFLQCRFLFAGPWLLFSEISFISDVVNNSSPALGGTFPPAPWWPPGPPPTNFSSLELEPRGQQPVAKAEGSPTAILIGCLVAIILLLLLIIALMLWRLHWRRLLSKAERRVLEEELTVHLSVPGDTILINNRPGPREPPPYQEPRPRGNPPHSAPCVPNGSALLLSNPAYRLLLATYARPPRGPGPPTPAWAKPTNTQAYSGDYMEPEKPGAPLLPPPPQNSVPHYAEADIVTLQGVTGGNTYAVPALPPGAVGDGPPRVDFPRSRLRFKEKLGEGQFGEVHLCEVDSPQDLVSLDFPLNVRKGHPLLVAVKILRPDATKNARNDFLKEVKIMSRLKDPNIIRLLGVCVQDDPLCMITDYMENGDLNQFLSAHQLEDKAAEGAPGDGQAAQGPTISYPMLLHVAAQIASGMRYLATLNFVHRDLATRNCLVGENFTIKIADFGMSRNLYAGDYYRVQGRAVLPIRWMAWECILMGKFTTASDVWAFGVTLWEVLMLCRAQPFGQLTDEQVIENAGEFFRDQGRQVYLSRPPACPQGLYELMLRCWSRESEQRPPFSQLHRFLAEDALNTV
Chain of RAC-alpha serine/threonine-protein kinase (P31749 whole entry): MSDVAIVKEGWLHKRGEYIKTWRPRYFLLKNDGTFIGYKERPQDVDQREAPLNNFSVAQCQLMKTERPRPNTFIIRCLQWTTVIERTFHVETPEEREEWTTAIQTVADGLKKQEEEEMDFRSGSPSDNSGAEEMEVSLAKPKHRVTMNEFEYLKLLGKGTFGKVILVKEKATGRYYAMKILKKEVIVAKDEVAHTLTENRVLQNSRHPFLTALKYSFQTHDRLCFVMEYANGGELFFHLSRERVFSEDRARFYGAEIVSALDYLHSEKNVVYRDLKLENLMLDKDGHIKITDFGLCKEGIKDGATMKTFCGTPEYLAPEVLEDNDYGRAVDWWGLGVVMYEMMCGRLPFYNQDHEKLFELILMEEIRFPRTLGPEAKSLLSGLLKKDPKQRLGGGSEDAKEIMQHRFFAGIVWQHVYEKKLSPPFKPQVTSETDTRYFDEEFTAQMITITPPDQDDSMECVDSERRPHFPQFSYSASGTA
Chain of Mitogen-activated protein kinase 11 (Q15759 whole entry): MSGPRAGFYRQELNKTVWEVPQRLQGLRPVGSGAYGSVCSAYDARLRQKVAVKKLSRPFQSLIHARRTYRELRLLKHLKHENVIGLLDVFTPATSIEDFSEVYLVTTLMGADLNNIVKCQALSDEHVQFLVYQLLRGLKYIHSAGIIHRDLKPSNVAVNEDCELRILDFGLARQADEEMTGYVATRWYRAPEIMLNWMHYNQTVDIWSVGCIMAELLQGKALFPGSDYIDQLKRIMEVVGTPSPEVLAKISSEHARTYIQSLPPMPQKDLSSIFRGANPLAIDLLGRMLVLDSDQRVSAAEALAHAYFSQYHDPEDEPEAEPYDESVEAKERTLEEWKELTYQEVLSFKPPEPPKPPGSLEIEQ

Row | Kd [1] | Kd [2] | Kd [3] | Kd [4] | Kd [5] | Kd [6] | Kd (Heme oxygenase 2) | SMILES
1 | > 30 µM (inactive) | > 30 µM (inactive) | > 30 µM (inactive) | > 30 µM (inactive) | > 30 µM (inactive) | > 30 µM (inactive) | > 30 µM (inactive) | CCc1cnn2c(NCc3ccc[n+]([O-])c3)cc(N3CCCC[C@H]3CCO)nc12 [DINACICLIB]
2 | > 30 µM (inactive) | > 30 µM (inactive) | > 30 µM (inactive) | > 30 µM (inactive) | > 30 µM (inactive) | > 30 µM (inactive) | > 30 µM (inactive) | CN(C)C(=O)c1cc2cnc(Nc3ccc(N4CCNCC4)cn3)nc2n1C1CCCC1 [RIBOCICLIB]
3 | > 30 µM (inactive) | > 30 µM (inactive) | – | > 30 µM (inactive) | > 30 µM (inactive) | > 30 µM (inactive) | > 30 µM (inactive) | C[C@@H]1CN(Cc2ccc(F)cc2)[C@@H](C)CN1C(=O)c1cc2c(C(=O)C(=O)N(C)C)cn(C)c2cc1Cl [TALMAPIMOD]
4 | > 30 µM (inactive) | > 30 µM (inactive) | > 30 µM (inactive) | > 30 µM (inactive) | > 30 µM (inactive) | > 30 µM (inactive) | > 30 µM (inactive) | CO[C@H]1C[C@@H]2CC[C@@H](C)[C@@](O)(O2)C(=O)C(=O)N2CCCC[C@H]2C(=O)O[C@H]([C@H](C)C[C@@H]2CC[C@@H](OCCO)[C@H](OC)C2)CC(=O)[C@H](C)/C=C(\C)[C@@H](O)[C@@H](OC)C(=O)[C@H](C)C[C@H](C)/C=C/C=C/C=C/1C [EVEROLIMUS]
5 | – | > 30 µM (inactive) | > 30 µM (inactive) | > 30 µM (inactive) | – | > 30 µM (inactive) | > 30 µM (inactive) | COc1cc(CCc2cc(NC(=O)c3ccc(N4C[C@@H](C)N[C@@H](C)C4)cc3)n[nH]2)cc(OC)c1 [AZD-4547]
6 | – | > 30 µM (inactive) | > 30 µM (inactive) | > 30 µM (inactive) | > 30 µM (inactive) | > 30 µM (inactive) | > 30 µM (inactive) | COc1cc(OC)c(/C=C/S(=O)(=O)Cc2ccc(OC)c(NCC(=O)O)c2)c(OC)c1 [RIGOSERTIB]
7 | > 30 µM (inactive) | – | – | > 30 µM (inactive) | – | – | > 30 µM (inactive) | CCn1c(-c2nonc2N)nc2c(C#CC(C)(C)O)ncc(OC[C@H]3CCCNC3)c21 [GSK-690693]
8 | > 30 µM (inactive) | > 30 µM (inactive) | – | > 30 µM (inactive) | > 30 µM (inactive) | > 30 µM (inactive) | > 30 µM (inactive) | Cc1c(F)cc(C(=O)NC2CC2)cc1-c1ccc(C(=O)NCC(C)(C)C)cn1 [LOSMAPIMOD]

Further lines, the molecule ahead of its results:

Row | SMILES | Kd [1] | Kd [2] | Kd [3] | Kd [4] | Kd [5] | Kd [6] | Kd (Heme oxygenase 2)
9 | Cn1ncc(Cl)c1-c1cc(C(=O)N[C@H](CN)Cc2cccc(F)c2)sc1Cl [AFURESERTIB] | > 30 µM (inactive) | – | > 30 µM (inactive) | > 30 µM (inactive) | > 30 µM (inactive) | – | > 30 µM (inactive)
10 | CC[C@H](Nc1ncnc2[nH]cnc12)c1nc2cccc(F)c2c(=O)n1-c1ccccc1 [IDELALISIB] | > 30 µM (inactive) | > 30 µM (inactive) | > 30 µM (inactive) | > 30 µM (inactive) | > 30 µM (inactive) | > 30 µM (inactive) | > 30 µM (inactive)
11 | O=C(O)[C@]1(Cc2cccc(Nc3nccs3)n2)CC[C@@H](Oc2cccc(Cl)c2F)CC1 [MK-5108] | > 30 µM (inactive) | > 30 µM (inactive) | > 30 µM (inactive) | > 30 µM (inactive) | 1.22 µM (active) | > 30 µM (inactive) | > 30 µM (inactive)
12 | O=C1NC(=O)/C(=C/c2ccc3nccc(-c4ccncc4)c3c2)S1 [GSK-1059615] | > 30 µM (inactive) | > 30 µM (inactive) | > 30 µM (inactive) | > 30 µM (inactive) | > 30 µM (inactive) | > 30 µM (inactive) | > 30 µM (inactive)
13 | Cn1cc(-c2ccc3nnc(C(F)(F)c4ccc5ncccc5c4)n3n2)cn1 [JNJ-38877605] | > 30 µM (inactive) | > 30 µM (inactive) | > 30 µM (inactive) | > 30 µM (inactive) | > 30 µM (inactive) | > 30 µM (inactive) | > 30 µM (inactive)
14 | CN1CCN(c2ccc3nc(-c4c(N)c5c(F)cccc5[nH]c4=O)[nH]c3c2)CC1 [DOVITINIB] | – | – | – | > 30 µM (inactive) | – | – | > 30 µM (inactive)
15 | Cc1cc(Nc2cc(N3CCN(C)CC3)nc(/C=C/c3ccccc3)n2)n[nH]1 [ENMD-2076] | > 30 µM (inactive) | – | > 30 µM (inactive) | > 30 µM (inactive) | 0.755 µM (active) | – | > 30 µM (inactive)
16 | CNC(=O)c1ccc(C)c(-n2c(C)cc(OCc3ccc(F)cc3F)c(Br)c2=O)c1 [PH-797804] | > 30 µM (inactive) | – | – | > 30 µM (inactive) | > 30 µM (inactive) | > 30 µM (inactive) | > 30 µM (inactive)
17 | COCCNCc1ccc(-c2cc3nccc(Oc4ccc(NC(=S)NC(=O)Cc5ccc(F)cc5)cc4F)c3s2)nc1 [GLESATINIB] | > 30 µM (inactive) | > 30 µM (inactive) | > 30 µM (inactive) | > 30 µM (inactive) | – | > 30 µM (inactive) | > 30 µM (inactive)
18 | O=C(Nc1cccc(Cl)c1)Nc1ncc(CCNc2ncnc3ccsc23)s1 [SNS-314] | > 30 µM (inactive) | > 30 µM (inactive) | > 30 µM (inactive) | > 30 µM (inactive) | 0.14 µM (active) | – | > 30 µM (inactive)
19 | COc1cc2nccc(Oc3ccc(NC(=O)Nc4cc(C)on4)c(Cl)c3)c2cc1OC [TIVOZANIB] | > 30 µM (inactive) | > 30 µM (inactive) | – | > 30 µM (inactive) | 0.19 µM (active) | > 30 µM (inactive) | > 30 µM (inactive)
20 | Cc1cn(-c2cc(NC(=O)c3ccc(C)c(Nc4nccc(-c5cccnc5)n4)c3)cc(C(F)(F)F)c2)cn1 [NILOTINIB] | > 30 µM (inactive) | – | – | > 30 µM (inactive) | – | – | > 30 µM (inactive)
21 | Nc1nc(N)c2nc(-c3cccc(O)c3)c(-c3cccc(O)c3)nc2n1 [TG100-115] | – | – | – | > 30 µM (inactive) | – | – | > 30 µM (inactive)
22 | Cc1nc(N)sc1-c1ccnc(Nc2ccc(N3CCOCC3)cc2)n1 [CYC-116] | > 30 µM (inactive) | > 30 µM (inactive) | > 30 µM (inactive) | > 30 µM (inactive) | > 30 µM (inactive) | – | > 30 µM (inactive)
